Reference: US4732977A, “Carbapenem antibiotics” (priority 1986, dated 1988)
Converted amounts (≈) assume the structure as drawn. Read-outs that look alike come from different tables or passages of the source.

Assays:
S. pneumoniae A-9585 = assay: M.I.C., tube dilution; type: cell-based; settings: Streptococcus pneumoniae, A9585; overnight incubation at 37° C., Nutrient Broth; read-out: MIC
S. pyogenes A-9604 = assay: M.I.C., tube dilution; type: cell-based; settings: Streptococcus pyogenes, A9604; overnight incubation at 37° C., Nutrient Broth; read-out: MIC
E. coli A15119 = assay: M.I.C., tube dilution; type: cell-based; settings: Escherichia coli, A15119
E. coli A20341-1 = assay: M.I.C., tube dilution; type: cell-based; settings: Escherichia coli
P. vulgaris A21559 = assay: M.I.C., tube dilution; type: cell-based; settings: Proteus vulgaris, A21559, overnight incubation at 37° C., Nutrient Broth; read-out: MIC
P. aeruginosa A21213 = assay: M.I.C., tube dilution; type: cell-based; settings: Pseudomonas aeruginosa, A21213, overnight incubation at 37° C., Nutrient Broth; read-out: MIC
[1] = Blood levels in mice after intramuscular administration; settings: mouse, blood, im, 20 mg/kg;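 also: compounds dissolved in 0.1 M phosphate buffer at pH 7, data from one experiment using four mice for each compound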
Text: Compounds were solubilized in 0.1 M phosphate buffer pH 7.
a single test; 4 mice used per compound.
Compounds were solubilized in 0.1 M phosphate buffer, pH 7.
on a single test; 4 mice per compound.

H. influenzae A-9833 = assay: M.I.C., tube dilution; type: cell-based; settings: Haemophilus influenzae, A9833; overnight incubation at 37° C., Nutrient Broth
H. influenzae A21518 = assay: M.I.C., tube dilution; type: cell-based; settings: Haemophilus influenzae, overnight incubation at 37° C., Nutrient Broth
B. fragilis A22862 = assay: M.I.C., tube dilution; type: cell-based; settings: Bacteroides fragilis, overnight incubation at 37° C., Nutrient Broth
P. mirabilis A-9900 = assay: Protective effect in intramuscular treatment of infected mice; type: in vivo; settings: Proteus mirabilis, mice, i.m., read-out: PD50/treatment
Experimental: (§1) The PD50 (dose in mg/kg required to give protection to 50% of the infected mice) is indicated.
with drugs 0 and 2 hours postinfection.
(§2) The PD50 (dose in mg/kg) required to give protection to 50% of the infected mice is indicated.

P. aeruginosa A-9843a = assay: animal or person; type: in vivo, mice; settings: Pseudomonas aeruginosa, A9843A, in Mus musculus, im, read-out: PD50/treatment
Experimental: as §1
with drugs 0 and 2 hours postinfection.
as §2

S. aureus A-9606 = assay: Protective effect in intramuscular treatment of infected mice; type: in vivo; settings: Staphylococcus aureus, mice, i.m., read-out: PD50/treatment
Experimental: as §1
with drugs 0 and 2 hours postinfection.
as §2

E. coli A-15119 = assay: as above; type: in vivo; settings: Escherichia coli, mice, i.m., read-out: PD50/treatment
Experimental: as §1
with drugs 0 and 2 hours postinfection.
as §2

K. pneumoniae A9664 = assay: as above; type: in vivo; settings: Klebsiella pneumoniae
Text: as §2

S. aureus A-9537 = assay: M.I.C., tube dilution; type: cell-based; settings: Staphylococcus aureus, read-out: MIC
[2] = tested on: S. aureus A15097 (Meth-res.); assay: M.I.C., tube dilution; type: cell-based; settings: Staphylococcus aureus, overnight incubation at 37° C.
S. faecalis A20688 = assay: M.I.C., tube dilution; type: cell-based; settings: Enterococcus faecalis, A20688, overnight incubation at 37° C., Nutrient Broth; read-out: MIC
P. aeruginosa A24081 = assay: Protective effect in intramuscular treatment of infected mice; type: in vivo; settings: Pseudomonas aeruginosa, read-out: PD50/treatment
Text: as §2

K. pneumoniae A-9664 = assay: M.I.C., tube dilution; type: cell-based; settings: Klebsiella pneumoniae, A9664, overnight incubation at 37° C., Nutrient Broth
S. marcescens A20019 = assay: M.I.C., tube dilution; type: cell-based; settings: Serratia marcescens, A20019; overnight incubation at 37° C., Nutrient Broth
K. pneumoniae A20468 = assay: M.I.C., tube dilution; type: cell-based; settings: Klebsiella pneumoniae, A20468, overnight incubation at 37° C., Nutrient Broth
P. rettgeri A22424 = assay: M.I.C., tube dilution; type: cell-based; settings: Providencia rettgeri, A22424
E. cloacae A-9659 = assay: M.I.C., tube dilution; type: cell-based; settings: Enterobacter cloacae, A9659
[3] = im, K. pneumoniae A9664, read-out: PD50/treatment
[4] = A203411, overnight incubation at 37° C., Nutrient Broth, read-out: MIC
[5] = overnight incubation at 37° C., Nutrient Broth, read-out: MIC

Structure (SMILES)	MIC (S. pneumoniae A-9585)	MIC (S. pyogenes A-9604)	MIC (P. vulgaris A21559)	MIC (P. aeruginosa A21213)	AUC [1]	Cmax [1]	half-life [1]	ED50 (P. aeruginosa A-9843a)	MIC (S. aureus A-9537; A9537, +50% serum)	MIC (S. faecalis A20688)	ED50 (S. aureus A-9606; im, S. aureus A9606)	also measured
C[C@@H](O)[C@H]1C(=O)N2C(C(=O)[O-])=C(SCCc3cc[n+](C)cc3)C[C@H]12 [Example 2]	0.001 mg/L (≈ 0.00287 µM)	0.001 mg/L (≈ 0.00287 µM)	0.016 mg/L (≈ 0.0459 µM)	2 mg/L (≈ 5.74 µM)	5.3 µg·h/mL	13.9 µg/mL	9 min					MIC (E. coli A15119; table 2, no inoculum dilution printed, read-out: MIC): 0.016 mg/L (≈ 0.0459 µM); MIC (E. coli A20341-1; A203411, table 2, no inoculum dilution printed, read-out: MIC): 0.016 mg/L (≈ 0.0459 µM)
C[C@@H](O)[C@H]1C(=O)N2C(C(=O)[O-])=C(SCCc3cccc[n+]3C)C[C@H]12 [Example 5, 3-(N-Methylpyridine-2-yl-ethanethio)-6α-[1-(R)-hydroxyethyl]-7-oxo-1-azabicyclo(3.2.0)hept-2-ene-2-carboxylate]			0.016 mg/L (≈ 0.0459 µM)	2 mg/L (≈ 5.74 µM)				1.6 mg/kg				MIC (H. influenzae A-9833): 4 mg/L (≈ 11.5 µM); MIC (H. influenzae A21518): 4 mg/L (≈ 11.5 µM); MIC (B. fragilis A22862): 0.03 mg/L (≈ 0.0861 µM); ED50 (P. mirabilis A-9900; A9900, im, P. mirabilis, strain not given): 10 mg/kg; ED50 (S. aureus A-9606; A9606, im, S. aureus, strain not given): 0.2 mg/kg; ED50 (E. coli A-15119; A15119, im, E. coli, strain not given): 4 mg/kg; ED50 (K. pneumoniae A9664; A9664, im, i.m., K. pneumoniae, strain not given, read-out: PD50/treatment): 3 mg/kg
CCC[n+]1ccc(CSC2=C(C(=O)[O-])N3C(=O)[C@H]([C@@H](C)O)[C@H]3C2)cc1 [Example 6, 3-(1-Propylpyridine-4-yl-methanethio)-6α-[1-(R)-hydroxyethyl]-7-oxo-1-azabicyclo(3.2.0)hept-2-ene-2-carboxylate]			0.06 mg/L (≈ 0.166 µM)	1 mg/L (≈ 2.76 µM)	8.5 µg·h/mL	17.7 µg/mL	9 min	0.4 mg/kg	0.06 mg/L (≈ 0.166 µM)	0.5 mg/L (≈ 1.38 µM)		MIC [2]: 4 mg/L (≈ 11 µM); MIC (E. coli A15119; overnight incubation at 37° C., Nutrient Broth): 0.06 mg/L (≈ 0.166 µM); MIC (E. coli A20341-1; A203411, overnight incubation at 37° C., Nutrient Broth): 0.06 mg/L (≈ 0.166 µM); MIC (B. fragilis A22862): 0.03 mg/L (≈ 0.0828 µM)
Cc1scc(CSC2=C(C(=O)[O-])N3C(=O)[C@H]([C@@H](C)O)[C@H]3C2)[n+]1C [Example 8, 3-(2-Methyl-N-methyl-thiazole-4-yl-methanethio)-6-α-[1-(R)-hydroxyethyl]-7-oxo-1-azabicyclo(3.2.0)hept-2-ene-2-carboxylate]			0.03 mg/L (≈ 0.0846 µM)		10.5 µg·h/mL	18.8 µg/mL	11 min	0.19 mg/kg		0.5 mg/L (≈ 1.41 µM)	0.21 mg/kg	ED50 (P. mirabilis A-9900; im, P. mirabilis A9900): 1.4 mg/kg; ED50 (E. coli A-15119; im, E. coli A15119): 0.86 mg/kg; ED50 (K. pneumoniae A9664; [3]): 1.8 mg/kg; ED50 (P. aeruginosa A24081; im, mice, i.m., P. aeruginosa A24081): 0.33 mg/kg
C[C@@H](O)[C@H]1C(=O)N2C(C(=O)[O-])=C(SCc3n(C)cc[n+]3C)C[C@H]12 [Example 9, 3-(N,N'-Dimethylimidazole-2-yl-methanethio)-6α-[1-(R)-hydroxyethyl]-7-oxo-1-azabicyclo(3.2.0)hept-2-ene-2-carboxylate]	0.001 mg/L (≈ 0.00296 µM)	0.001 mg/L (≈ 0.00296 µM)	0.008 mg/L (≈ 0.0237 µM)		8.5 µg·h/mL	16.7 µg/mL	12 min	0.19 mg/kg	0.008 mg/L (≈ 0.0237 µM)			ED50 (P. mirabilis A-9900; im, P. mirabilis A9900): 7.1 mg/kg; ED50 (E. coli A-15119; im, E. coli A15119): 1.2 mg/kg; ED50 (K. pneumoniae A9664; [3]): 1.8 mg/kg; ED50 (P. aeruginosa A24081; A24081, im): 0.19 mg/kg
Cc1sc(CSC2=C(C(=O)[O-])N3C(=O)[C@H]([C@@H](C)O)[C@H]3C2)c(C)[n+]1C [Example 10, 3-(2,3,4-Trimethylthiazole-5-yl-methanethio)-6α-[1-(R)-hydroxyethyl]-7-oxo-1-azabicyclo(3.2.0)hept-2-ene-2-carboxylate]	0.001 mg/L (≈ 0.00271 µM)	0.001 mg/L (≈ 0.00271 µM)	0.016 mg/L (≈ 0.0434 µM)	2 mg/L (≈ 5.43 µM)	9.5 µg·h/mL	20.1 µg/mL	11 min					MIC (K. pneumoniae A-9664): 0.06 mg/L (≈ 0.163 µM); MIC (S. marcescens A20019): 0.06 mg/L (≈ 0.163 µM)
CC(SC1=C(C(=O)[O-])N2C(=O)[C@H]([C@@H](C)O)[C@H]2C1)c1cc[n+](C)cc1 (stereo partly shown) [Example 12]	0.002 mg/L (≈ 0.00574 µM)		0.016 mg/L (≈ 0.0459 µM)	2 mg/L (≈ 5.74 µM)				1.8 mg/kg	0.016 mg/L (≈ 0.0459 µM)	0.5 mg/L (≈ 1.44 µM)	0.89 mg/kg	MIC (S. aureus A-9537; A9537, overnight incubation at 37° C., Nutrient Broth): 0.008 mg/L (≈ 0.023 µM); MIC (E. coli A20341-1; [4]): 0.008 mg/L (≈ 0.023 µM); MIC (K. pneumoniae A20468): 0.06 mg/L (≈ 0.172 µM); MIC (P. rettgeri A22424): 0.13 mg/L (≈ 0.373 µM); MIC (E. cloacae A-9659): 0.06 mg/L (≈ 0.172 µM)
Cc1c(CSC2=C(C(=O)[O-])N3C(=O)[C@H]([C@@H](C)O)[C@H]3C2)ccc[n+]1C [Example 14, 3-(2-Methyl-N-methylpyridine-3-yl-methanethio)-6α[1-(R)-hydroxyethyl]-7-oxo-1-azabicyclo(3.2.0)hept-2-ene-2-carboxylate]	0.0005 mg/L (≈ 0.00144 µM)	0.0005 mg/L (≈ 0.00144 µM)	0.016 mg/L (≈ 0.0459 µM)	0.5 mg/L (≈ 1.44 µM)	7.6 µg·h/mL	15.8 µg/mL	13 min	0.45 mg/kg			0.07 mg/kg	
C[C@@H](O)[C@H]1C(=O)N2C(C(=O)[O-])=C(SCc3cn(C)n[n+]3C)C[C@H]12 [Example 15 "A", 3-[4-(N,N-dimethyl-1,2,3-triazolium)methylthio]-6α-[1-(R)-hydroxyethyl]-7-oxo-1-azabicyclo(3.2.0)hept-2-ene-2-carboxylate]	0.0005 mg/L (≈ 0.00148 µM)	0.0005 mg/L (≈ 0.00148 µM)	0.008 mg/L (≈ 0.0236 µM)		9.5 µg·h/mL	16.7 µg/mL	12 min	0.39 mg/kg				
C[C@@H](O)[C@H]1C(=O)N2C(C(=O)[O-])=C(SCc3cn(CC(=O)O)n[n+]3C)C[C@H]12 [Example 18, Potassium 3-[4-(1-carboxylatomethyl-3-methyl-1,2,3-triazolium)-methanethio]-6α-[1-(R)-hydroxyethyl]-7-oxo-1-azabicyclo[3.2.0]hept-2-ene-2-carboxylate]	1 mg/L	2 mg/L		63 mg/L	3.9 µg·h/mL	14.9 µg/mL	6 min		> 63 mg/L	63 mg/L		MIC (E. coli A15119; [5]): 16 mg/L; MIC (E. coli A20341-1; [4]): 16 mg/L; MIC (K. pneumoniae A20468; read-out: MIC): 63 mg/L; MIC (E. cloacae A-9659; [5]): 63 mg/L
